Experimental data taken from ChEMBL document CHEMBL3885861, “Open TG-GATES”.

Organism: Rattus norvegicus
Experiment: Open TG-GATES - Regimen: Daily Repeat
Assay type: toxicity, organism-based, Sprague-Dawley
Design: regimen Daily Repeat, gender Male, age 6 weeks
Settings: in vivo, po, 20 mg/kg, route gavage, dose level Low; for Eos / Fbg / Hb / Ht / MCHC / MCV / Mono / Neu / Plat / RBC / Ret / WBC / Bas: tissue Blood; for KIDNEY_L / KIDNEY_R / KIDNEY_TOTAL: tissue Kidney; for LIVER: tissue Liver; for ALP / AST / BUN / CRE / DBIL / GLC / IP / K / LDH / Na / RALB / TBIL / TC / TG / TP / gamma-GTP / PL: tissue Plasma

SMILES: CO[C@H]1/C=C/O[C@@]2(C)Oc3c(C)c(O)c4c(O)c(c(/C=N/N5CCN(C)CC5)c(O)c4c3C2=O)NC(=O)/C(C)=C\C=C\[C@H](C)[C@H](O)[C@@H](C)[C@@H](O)[C@@H](C)[C@H](OC(C)=O)[C@@H]1C [RIFAMPIN]
- Eos (72 h, time 3 day): 0.8%
- Fbg (72 h, time 3 day): 239.4 mg/dL
- Hb (72 h, time 3 day): 14 g/dL
- Ht (72 h, time 3 day): 42.3%
- MCHC (72 h, time 3 day): 33%
- MCV (72 h, time 3 day): 62.8 fL
- Mono (72 h, time 3 day): 8%
- Neu (72 h, time 3 day): 7.2%
- Plat (72 h, time 3 day): 125.9 x10_4/uL
- RBC (72 h, time 3 day): 673.8 x10_4/ul
- Ret (72 h, time 3 day): 5.5%
- WBC (72 h, time 3 day): 119.2 x10_2/uL
- KIDNEY_L (72 h, time 3 day): 1 g
- KIDNEY_R (72 h, time 3 day): 1 g
- KIDNEY_TOTAL (72 h, time 3 day): 2 g
- LIVER (72 h, time 3 day): 10.7 g
- ALP (72 h, time 3 day): 787.6 IU/L
- AST (72 h, time 3 day): 66.8 IU/L
- BUN (72 h, time 3 day): 16 mg/dL
- CRE (72 h, time 3 day): 0.5 mg/dL
- DBIL (72 h, time 3 day): 0.002 mg/dL
- GLC (72 h, time 3 day): 194.8 mg/dL
- IP (72 h, time 3 day): 8.8 mg/dL
- K (72 h, time 3 day): 4.6 meq/L
- LDH (72 h, time 3 day): 113.2 IU/L
- Na (72 h, time 3 day): 139.4 meq/L
- RALB (72 h, time 3 day): 3.6 g/dL
- TBIL (72 h, time 3 day): 0.3 mg/dL
- TC (72 h, time 3 day): 73.4 mg/dL
- TG (72 h, time 3 day): 66 mg/dL
- TP (72 h, time 3 day): 5.8 g/dL
- gamma-GTP (72 h, time 3 day): 1.8 IU/L
- TERMINAL_BW ([…], time 7 day): 264.5 g
- TERMINAL_BW ([…], time 14 day): 308 g
- TERMINAL_BW ([…], time 28 day): 375.5 g
- Bas ([…], time 7 day): 0%
- Eos ([…], time 7 day): 0.8%
- Fbg ([…], time 7 day): 232.6 mg/dL
- Hb ([…], time 7 day): 14 g/dL
- Ht ([…], time 7 day): 41.7%
- MCHC ([…], time 7 day): 33.4%
- MCV ([…], time 7 day): 63.4 fL
- Mono ([…], time 7 day): 4.8%
- Neu ([…], time 7 day): 9%
- Plat ([…], time 7 day): 115.2 x10_4/uL
- RBC ([…], time 7 day): 658 x10_4/ul
- Ret ([…], time 7 day): 5.9%
- WBC ([…], time 7 day): 129.4 x10_2/uL
- Bas ([…], time 14 day): 0%
- Eos ([…], time 14 day): 0.8%
- Fbg ([…], time 14 day): 227.2 mg/dL
- Hb ([…], time 14 day): 14.7 g/dL
- Ht ([…], time 14 day): 44%
- MCHC ([…], time 14 day): 33.4%
- MCV ([…], time 14 day): 60.7 fL
- Mono ([…], time 14 day): 2.8%
- Neu ([…], time 14 day): 6%
- Plat ([…], time 14 day): 121.9 x10_4/uL
- RBC ([…], time 14 day): 726.2 x10_4/ul
- Ret ([…], time 14 day): 3.5%
- WBC ([…], time 14 day): 131.2 x10_2/uL
- Bas ([…], time 28 day): 0%
- Eos ([…], time 28 day): 1%
- Fbg ([…], time 28 day): 225 mg/dL
- Hb ([…], time 28 day): 15.6 g/dL
- Ht ([…], time 28 day): 46.4%
- MCHC ([…], time 28 day): 33.5%
- MCV ([…], time 28 day): 56.7 fL
- Mono ([…], time 28 day): 4.4%
- Neu ([…], time 28 day): 7.6%
- Plat ([…], time 28 day): 107.2 x10_4/uL
- RBC ([…], time 28 day): 819 x10_4/ul
- Ret ([…], time 28 day): 2%
- WBC ([…], time 28 day): 119 x10_2/uL
- KIDNEY_L ([…], time 7 day): 1.1 g
- KIDNEY_R ([…], time 7 day): 1.1 g
- KIDNEY_TOTAL ([…], time 7 day): 2.2 g
- KIDNEY_L ([…], time 14 day): 1.2 g
- KIDNEY_R ([…], time 14 day): 1.3 g
- KIDNEY_TOTAL ([…], time 14 day): 2.5 g
- KIDNEY_L ([…], time 28 day): 1.3 g
- KIDNEY_R ([…], time 28 day): 1.3 g
- KIDNEY_TOTAL ([…], time 28 day): 2.6 g
- LIVER ([…], time 7 day): 12.2 g
- LIVER ([…], time 14 day): 13.1 g
- LIVER ([…], time 28 day): 14.5 g
- ALP ([…], time 7 day): 835.8 IU/L
- AST ([…], time 7 day): 65.4 IU/L
- BUN ([…], time 7 day): 16.8 mg/dL
- CRE ([…], time 7 day): 0.5 mg/dL
- DBIL ([…], time 7 day): 0.016 mg/dL
- GLC ([…], time 7 day): 193.4 mg/dL
- IP ([…], time 7 day): 7.7 mg/dL
- K ([…], time 7 day): 5.1 meq/L
- LDH ([…], time 7 day): 96.6 IU/L
- Na ([…], time 7 day): 138.8 meq/L
- PL ([…], time 7 day): 156.2 mg/dL
- RALB ([…], time 7 day): 3.8 g/dL
- TBIL ([…], time 7 day): 0.3 mg/dL
- TC ([…], time 7 day): 80.6 mg/dL
- TG ([…], time 7 day): 120.4 mg/dL
- TP ([…], time 7 day): 5.8 g/dL
- gamma-GTP ([…], time 7 day): 1.8 IU/L
- ALP ([…], time 14 day): 712.2 IU/L
- AST ([…], time 14 day): 56.6 IU/L
- BUN ([…], time 14 day): 18.6 mg/dL
- CRE ([…], time 14 day): 0.5 mg/dL
- DBIL ([…], time 14 day): 0.04 mg/dL
- GLC ([…], time 14 day): 190.2 mg/dL
- IP ([…], time 14 day): 7.7 mg/dL
- K ([…], time 14 day): 4.9 meq/L
- LDH ([…], time 14 day): 75.8 IU/L
- Na ([…], time 14 day): 140 meq/L
- PL ([…], time 14 day): 159.8 mg/dL
- RALB ([…], time 14 day): 3.9 g/dL
- TBIL ([…], time 14 day): 0.3 mg/dL
- TC ([…], time 14 day): 77.4 mg/dL
- TG ([…], time 14 day): 168.2 mg/dL
- TP ([…], time 14 day): 6.1 g/dL
- gamma-GTP ([…], time 14 day): 0.8 IU/L
- ALP ([…], time 28 day): 548.6 IU/L
- AST ([…], time 28 day): 59.4 IU/L
- BUN ([…], time 28 day): 18.6 mg/dL
- CRE ([…], time 28 day): 0.6 mg/dL
- DBIL ([…], time 28 day): 0.016 mg/dL
- GLC ([…], time 28 day): 187.8 mg/dL
- IP ([…], time 28 day): 7.1 mg/dL
- K ([…], time 28 day): 4.3 meq/L
- LDH ([…], time 28 day): 84.8 IU/L
- Na ([…], time 28 day): 141.2 meq/L
- PL ([…], time 28 day): 146.8 mg/dL
- RALB ([…], time 28 day): 4.1 g/dL
- TBIL ([…], time 28 day): 0.3 mg/dL
- TC ([…], time 28 day): 76.8 mg/dL
- TG ([…], time 28 day): 121.4 mg/dL
- TP ([…], time 28 day): 6.3 g/dL
- gamma-GTP ([…], time 28 day): 1.6 IU/L
